Results published in US7919531B2, “3,5-dihydroxy-2,4-cyclohexadienones and their derivatives, dietary compositions and fortified food containing them and their uses” (DSM IP Assets B.V., priority 2006, dated 2011).
One block for each compound: values may come before it.

Tests used:
[1] = biological target: T1, human serotonin re-uptake transporter (hSERT) (Homo sapiens, UniProt P31645); experiment: Serotonin uptake inhibition in HEK-293 cells expressing hSERT; format: cell-based; conditions: for Effect on serotonin re-uptake (hSERT dependent uptake of tritiated serotonin into transfected cells): result in words; for Ki: transfected HEK-293 cells, Ki from measured IC50 by Cheng-Prusoff, average +/− s.e.m. of two experiments, read-out: Inhibition constant Ki for tritiated serotonin uptake
T1 construct: host or cells: HEK-293
T1 sequence (P31645 whole entry): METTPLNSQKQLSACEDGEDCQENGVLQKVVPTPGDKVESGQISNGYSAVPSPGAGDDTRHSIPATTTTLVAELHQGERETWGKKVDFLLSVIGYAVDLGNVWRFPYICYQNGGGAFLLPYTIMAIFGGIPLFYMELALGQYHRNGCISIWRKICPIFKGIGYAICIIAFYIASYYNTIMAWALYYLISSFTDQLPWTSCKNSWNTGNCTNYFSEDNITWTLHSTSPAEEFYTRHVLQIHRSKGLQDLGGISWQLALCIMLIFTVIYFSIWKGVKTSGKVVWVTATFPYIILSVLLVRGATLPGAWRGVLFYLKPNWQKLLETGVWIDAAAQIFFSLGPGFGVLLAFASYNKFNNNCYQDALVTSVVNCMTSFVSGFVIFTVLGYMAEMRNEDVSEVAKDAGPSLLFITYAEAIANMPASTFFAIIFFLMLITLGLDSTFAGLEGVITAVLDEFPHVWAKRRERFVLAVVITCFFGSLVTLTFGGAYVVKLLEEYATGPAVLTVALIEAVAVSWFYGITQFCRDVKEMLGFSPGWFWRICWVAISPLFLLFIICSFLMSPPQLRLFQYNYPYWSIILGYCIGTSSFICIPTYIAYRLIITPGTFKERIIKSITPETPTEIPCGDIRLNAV
From the text: HEK-293 cells stably expressing the human serotonin re-uptake transporter (hSERT) were obtained from R. Blakely, Vanderbilt University, USA. The cells were routinely grown in Dulbeco's Modified Eagles Medium (Bioconcept) containing 10% fetal calf serum, penicillin, streptomycin, L-glutamine and the antibiotic G418 and passaged by trypsinisation. On the day of assay, cells from 80% confluent flasks were harvested by gentle washing with warm phosphate buffered saline (PBS). Cells were then washed once by centrifugation and re-suspended in Krebs Ringers bicarbonate buffer (Sigma) supplemented with 35 μM pargyline, 2.2 mM CaCl2, 1 mM ascorbic acid and 5 mM N-2-hydroxyethylpiperazine-N′-2-ethanesulfonic acid (buffer called “Hepes”) at a concentration of 10,000 cells in 160 ul of buffer, and aliquoted into round bottomed polypropylene 96 well microtitre plates (Corning) at 10,000 cells per well. Serotonin uptake into the cells was determined by addition of radio-labeled (3H) serotonin (GE Healthcare) to a concentration of 20 nM, and incubation for 40 minutes at 37° C. with gentle shaking. At the end of this time unincorporated label was removed by filtration though Unifilter 96 GF/B plates (Perkin Elmer) using a Tomtec Mach III M cell harvester. The incorporated serotonin retained on the plates was quantified by liquid scintillation counting using Microscint-40/Topcount (Perkin Elmer).
The effect of (−)-humulone and lupulone on the serotonin uptake was determined by their inclusion in the assay at a range of concentrations between 0.03 and 100 μM for 10 minutes prior to and during the addition of (3H) serotonin. Serotonin uptake via the transporter was inhibited by (−)-humulone and lupulone, respectively, in a dose dependent manner.
The calculated inhibition constants Ki, derived from the measured IC50 using the Cheng-Prusoff equation (Y. C. Cheng, W. H. Prusoff, Biochem. Pharmacol. 1973, 22, p. 3099-3108), for inhibition of serotonin uptake by (−)-humulone and lupulone are shown in Table 1.

mouse [2] = experiment: Light dark box test in the mouse after subchronic oral gavage; format: in vivo; conditions: for Number of crossings, mean ± sem / Time spent in light compartment, mean ± sem: 5 h and 1 h before test; for Number of crossings, mean ± sem: vehicle 6.5 ± 1.0; for Time spent in light compartment, mean ± sem: vehicle 64.4 ± 4.7; for Number of crossings, % change / Time spent in light compartment, % change: versus vehicle control
From the text: The method, which detects anxiolytic activity, follows that described by Crawley (Pharmacol. Biochem. Behav. 1981, 15, 695-699). Anxiolytics increase the time spent in the light compartment.
Animals were placed into the light compartment of a 2-compartment box with one half light and open (25×27×27 cm) and the other half dark and closed (20×27×27 cm). The time spent in each compartment as well as the number of times the animal crosses from one side to the other is scored during a 3-minute test. 15 mice were studied per group. The test was performed blind. […]
Clobazam (32 mg/kg orally), administered 1 hour before the test, will be used as reference substance. Mice in this group received additional administrations of vehicle at 25 and 5 hours before the test in order to maintain experimental blinding.

mouse [3] = experiment: Marble burying test in the mouse; format: in vivo; conditions: for Number of marbles covered by sawdust, mean ± s.e.m.: vehicle 20.1 ± 1.7
From the text: The method applied here follows that described by Broekkamp et al. (European Journal of Pharmacology 1986, 126, 223-229.). Mice (n=15 per treatment group) were individually placed in transparent plastic cages (33×21×18 cm) with 5 cm of sawdust on the floor and 25 marbles (diameter 1 cm) grouped in the centre of the cage. A second, up-turned, cage served as a lid. The number of marbles covered by sawdust (by at least two-thirds) was counted at the end of the 30-minute test period. Tests were performed by investigators blind to the drug treatment protocol.
Prior to testing, all test cages and marbles were “impregnated” by leaving 10 naive mice in each cage for 15 minutes.
(−)-Humulone was solubilized in physiological saline. The control substance fluoxetine (Prozac®) (Lilly), batches n^o A069667 and A058238) was dispersed in 0.2% hydroxypropylmethylcellulose (HPMC) in physiological saline.
(−)-Humulone was evaluated at 3, 10 and 30 mg/kg, administered i.p. 30 minutes before the test, and compared with a vehicle control group. Fluoxetine (32 mg/kg), administered under the same experimental conditions, was used as a reference substance.
Data were analysed by comparing treated groups with vehicle control using unpaired Student's t-tests.

mouse [4] = experiment: Primary observation (Irwin) test in the mouse; format: in vivo; conditions: 30 mg/kg i.p., 5 mice per group
From the text: The method, which detects the first toxic dose, the active dose-range and the principal effects of a test substance on behaviour and physiological function, follows that described by Irwin (Irwin S. Comprehensive observational assessment: A systematic quantitative procedure for assessing the behavioural and physiologic state of the mouse. Psychopharmacologia, 1968, 13, 222-257).
3 treated groups were compared with the same control at any one time. All animals within a treatment group were observed simultaneously.
Behavioural modifications, physiological and neurotoxicity symptoms, pupil diameter and rectal temperature were recorded according to a standardized observation grid derived from that of Irwin. The grid contains the following items: lethality*, convulsions*, tremor*, Straub*, sedation, excitation, abnormal gait* (rolling, tip-toe), jumps*, motor incoordination*, writhes*, piloerection*, stereotypies* (sniffing, chewing, head movements), head twitches*, scratching*, respiration*, aggressiveness*, fear, reactivity to touch, muscle tone, loss of righting reflex, ptosis, exopthalmos, loss of grasping, akinesia, catalepsy, loss of traction, loss of corneal reflex, analgesia, defecation, salivation, lacrimation, pupil diameter (Unit=1/45 mm) and rectal temperature.
Observations were performed 15, 30, 60, 120 and 180 minutes after administration of the test substance ((−)-humulone) and also 24 hours later. The symptoms marked (*) were observed continuously from 0 to 15 minutes after administration. 5 mice were studied per group.
(−)-Humulone was solubilized in physiological saline and injected into mice intraperitoneally.

[5] = 50 mg/kg p.o., listed as (−)-Humulone

Effect on serotonin re-uptake (hSERT dependent uptake of tritiated serotonin into transfected cells) [1]: no effect
Compound: 6-hydroxycolupulone [compound 5, reference compound]

Effect on serotonin re-uptake (hSERT dependent uptake of tritiated serotonin into transfected cells) [1]: no effect
Compound: 6-hydroxylupulone [compound 4, reference compound]

The next lines start with the compound.

Compound: CC(C)=CCC1C(=O)C(C(=O)CC(C)C)=C(O)C(O)(CC=C(C)C)C1=O (single isomer, unassigned; (-)) [(−)-humulone]
Number of crossings, mean ± sem (mouse [2]; 50 mg/kg p.o. -24 h): 13.7 ± 1.3 | Time spent in light compartment, mean ± sem (mouse [2]; 50 mg/kg p.o. -24 h): 95.4 ± 3.8 s | Number of crossings, % change (mouse [2]; 50 mg/kg p.o.): +111% | Time spent in light compartment, % change (mouse [2]; 50 mg/kg p.o.): +48% | Number of crossings, % change (mouse [2]; [5]): +111% | Time spent in light compartment, % change (mouse [2]; [5]): +48% | Number of crossings, mean ± sem (mouse [2]; 100 mg/kg p.o. -24 h): 7.9 ± 1.0 | Time spent in light compartment, mean ± sem (mouse [2]; 100 mg/kg p.o. -24 h): 86.4 ± 8.9 s | Number of crossings, % change (mouse [2]; 100 mg/kg p.o.): +22% | Time spent in light compartment, % change (mouse [2]; 100 mg/kg p.o.): +34% | Time spent in light compartment, % change (mouse [2]; 100 mg/kg p.o., listed as (−)-Humulone): +34% | Number of crossings, mean ± sem (mouse [2]; 200 mg/kg p.o. -24 h): 8.3 ± 1.2 | Time spent in light compartment, mean ± sem (mouse [2]; 200 mg/kg p.o. -24 h): 71.5 ± 8.8 s | Number of crossings, % change (mouse [2]; 200 mg/kg p.o.): +28% | Time spent in light compartment, % change (mouse [2]; 200 mg/kg p.o.): +11% | Time spent in light compartment, % change (mouse [2]; 200 mg/kg p.o., listed as (−)-Humulone): +11% | Number of marbles covered by sawdust, % change from control (mouse [3]; 3 mg/kg i.p. −30 min): −9% | Number of marbles covered by sawdust, mean ± s.e.m. (mouse [3]; 3 mg/kg i.p. −30 min): 18.3 ± 1.7 (NS) | Number of marbles covered by sawdust, % change from control (mouse [3]; 10 mg/kg i.p. −30 min): −13% | Number of marbles covered by sawdust, mean ± s.e.m. (mouse [3]; 10 mg/kg i.p. −30 min): 17.5 ± 2.0 (NS) | Number of marbles covered by sawdust, % change from control (mouse [3]; 30 mg/kg i.p. −30 min): −81% | Number of marbles covered by sawdust, mean ± s.e.m. (mouse [3]; 30 mg/kg i.p. −30 min): 3.8 ± 1.5 (***) | Ki [1]: 16.9 µM | Decreased fear, number of mice (mouse [4]; at 30 minutes): 3 mice | Decreased muscle tone, number of mice (mouse [4]; at 30 minutes): 4 mice | Decreased fear, number of mice (mouse [4]; at 60 minutes): 1 mouse | Decreased muscle tone, number of mice (mouse [4]; at 60 minutes): 1 mouse

Compound: CNCCC(Oc1ccc(C(F)(F)F)cc1)c1ccccc1 (stereo not shown) [FLUOXETINE, fluoxetine, reference compound]
Number of marbles covered by sawdust, % change from control (mouse [3]; 32 mg/kg i.p. −30 min): −91% | Number of marbles covered by sawdust, mean ± s.e.m. (mouse [3]; 32 mg/kg i.p. −30 min): 1.9 ± 1.0 (***)

Compound: CC(C)=CCC1=C(O)C(C(=O)CC(C)C)=C(O)C(CC=C(C)C)(CC=C(C)C)C1=O [Lupulone, lupulone]
Effect on serotonin re-uptake (hSERT dependent uptake of tritiated serotonin into transfected cells) [1]: inhibited | Ki [1]: 6 µM

Compound: CC(C)=CCC(=O)C1(O)C(O)=C(C(=O)CC(C)C)C(=O)C1CC=C(C)C (stereo not shown) [compound 3, isohumulone, reference compound]
Effect on serotonin re-uptake (hSERT dependent uptake of tritiated serotonin into transfected cells) [1]: no effect
